Laboratory results from PubChem BioAssay (NCI).
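96-well plates; 48 h exposure; 5 concentrations. Endpoints by linear interpolation between flanking doses. Not reached: highest tested concentration assigned. The concentration for 50% growth inhibition is given as GI50. At the TGI there is no net growth.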

What was measured:
Assay in all cases: DTP human tumour cell line panel, 48 h
U251 CNS = tested on: U251 CNS
SK-MEL-28 melanoma = tested on: SK-MEL-28 melanoma
SK-MEL-5 melanoma = tested on: SK-MEL-5 melanoma
ACHN renal = tested on: ACHN renal
MDA-MB-231 breast = tested on: MDA-MB-231 breast
SW-620 colon = tested on: SW-620 colon
DU-145 prostate = tested on: DU-145 prostate
NCI/ADR-RES ovarian = tested on: NCI/ADR-RES ovarian
RPMI-8226 leukemia = tested on: RPMI-8226 leukemia
EKVX NSCLC = tested on: EKVX NSCLC

SMILES	GI50 (U251 CNS)	TGI (U251 CNS)	GI50 (SK-MEL-28 melanoma)	TGI (SK-MEL-28 melanoma)	GI50 (SK-MEL-5 melanoma)	TGI (SK-MEL-5 melanoma)	GI50 (ACHN renal)	TGI (ACHN renal)	GI50 (MDA-MB-231 breast)	TGI (MDA-MB-231 breast)	GI50 (SW-620 colon)	TGI (SW-620 colon)	GI50 (DU-145 prostate)	TGI (DU-145 prostate)	GI50 (NCI/ADR-RES ovarian)	TGI (NCI/ADR-RES ovarian)	GI50 (RPMI-8226 leukemia) [µM]	TGI (RPMI-8226 leukemia) [µM]	GI50 (EKVX NSCLC)	TGI (EKVX NSCLC)
COc1cc(Cl)cc(-c2nn(-c3cccc(NC(=O)Nc4cc(C(F)(F)F)cc(C(F)(F)F)c4)c3)cc2-c2ccncc2)c1	0.336 µM	1.36 µM	1.07 µM	4.83 µM	1.09 µM	2.33 µM	0.401 µM	12.7 µM	0.726 µM	2.26 µM	0.422 µM	2.72 µM	0.53 µM	12.4 µM	0.778 µM	9.66 µM	0.288	1.03	–	–
O=C(Nc1ccc2[nH]c(=S)sc2c1)Nc1ccccc1F	57.5 µM	> 100 µM	42.2 µM	> 100 µM	17.3 µM	84.1 µM	37.4 µM	> 100 µM	23.1 µM	> 100 µM	43.1 µM	> 100 µM	59.4 µM	> 100 µM	21.9 µM	> 100 µM	18	> 100	22.3 µM	> 100 µM
O=P(CCCCP(=O)(c1ccccc1)c1ccccc1)(c1ccccc1)c1ccccc1.[Cl][Sn]([Cl])([c]1ccccc1)[c]1ccccc1	2 µM	4.77 µM	1.7 µM	3.32 µM	1.9 µM	4.07 µM	1.86 µM	3.53 µM	0.626 µM	2.11 µM	0.696 µM	5.59 µM	2 µM	4.52 µM	2.96 µM	10.8 µM	0.332	1.16	2.71 µM	7.92 µM
Nc1nc(N)c2c(n1)NC(c1ccc(F)cc1)C1CCc3ccccc3C1=N2 (configuration not stated)	4.29 µM	16.9 µM	7.16 µM	19.7 µM	0.609 µM	2.21 µM	4.96 µM	17.8 µM	5.8 µM	19.8 µM	4.87 µM	17.4 µM	7.45 µM	19.8 µM	3.19 µM	11.4 µM	1.81	5.11	2.83 µM	14.6 µM
NC1=C(c2nc(-c3ccccc3)cs2)C(c2ccc(Br)cc2)c2c(c3ccccc3oc2=O)O1 (configuration not stated)	48.2 µg/mL	> 150 µg/mL	79.9 µg/mL	> 150 µg/mL	> 150 µg/mL	> 150 µg/mL	129 µg/mL	> 150 µg/mL	39.2 µg/mL	> 150 µg/mL	73.9 µg/mL	> 150 µg/mL	128 µg/mL	> 150 µg/mL	> 150 µg/mL	> 150 µg/mL	–	–	50.2 µg/mL	> 150 µg/mL
O=C(c1ccccc1)C(Br)C(Br)c1cccc([N+](=O)[O-])c1 (configuration not stated)	1.56 µM	3.02 µM	1.87 µM	3.64 µM	2.89 µM	10.8 µM	1.46 µM	2.77 µM	1.96 µM	3.79 µM	0.342 µM	1.49 µM	2.48 µM	6.33 µM	2.88 µM	8.82 µM	2.15	6.24	16.4 µM	34.5 µM
COc1cccc2c1C(=O)c1c(O)c3c(c(O)c1C2=O)C[C@@](O)(C(=O)CO)C[C@@H]3O[C@H]1C[C@H](N)[C@@H](O)[C@H](C)O1	–	16.4 µM	0.351 µM	1.35 µM	–	0.623 µM	–	–	0.595 µM	12.1 µM	–	7.61 µM	0.159 µM	5.8 µM	–	–	0.161	3.61	1.2 µM	16.1 µM
Oc1ccccc1CNCC12CC3CC(CC(C3)C1)C2	20.7 µM	49.3 µM	23.6 µM	52.7 µM	13.5 µM	26.9 µM	39.6 µM	> 100 µM	27.7 µM	> 100 µM	24.3 µM	84.8 µM	48.9 µM	> 100 µM	40.4 µM	> 100 µM	18.1	45	–	–
COC(=O)C1=C(C(=O)OC)SC(=C(Cl)C(=S)Nc2ccccc2O)S1	12.2 µM	30.5 µM	> 50 µM	> 50 µM	19.1 µM	> 50 µM	16.3 µM	> 50 µM	10.6 µM	25.9 µM	26.4 µM	> 50 µM	15.7 µM	> 50 µM	14.1 µM	35.1 µM	33	> 50	–	–
COc1ccc(C(=O)/C=C/c2ccc3c(c2)OCO3)c(OCc2ccccc2)c1	–	> 100 µM	–	> 100 µM	–	> 100 µM	–	> 100 µM	–	> 100 µM	–	> 100 µM	–	> 100 µM	–	–	–	76.6	–	> 100 µM
COc1ccc(S(=O)(=O)Nc2cc(/C=C\c3cc(OC)c(OC)c(OC)c3)ccc2OC)cc1	0.108 µM	> 100 µM	0.143 µM	> 100 µM	0.0488 µM	0.778 µM	0.0587 µM	17.3 µM	0.399 µM	> 100 µM	0.0785 µM	> 100 µM	0.341 µM	> 100 µM	0.0711 µM	30.8 µM	0.319	3.83	–	–
FC(F)(F)c1ccc(C#Cc2ccccc2C#Cc2ccccc2)cc1	27.6 µM	81.2 µM	> 100 µM	> 100 µM	32.7 µM	> 100 µM	40.9 µM	> 100 µM	26.5 µM	62.7 µM	30.6 µM	> 100 µM	48 µM	> 100 µM	62.8 µM	> 100 µM	–	–	33.6 µM	> 100 µM
O=c1[nH]c(=O)c2cc(C3CC(O)C(CO)O3)ccc2[nH]1 (configuration not stated)	> 100 µM	> 100 µM	> 100 µM	> 100 µM	> 100 µM	> 100 µM	–	–	> 100 µM	> 100 µM	> 100 µM	> 100 µM	> 100 µM	> 100 µM	> 100 µM	> 100 µM	> 100	> 100	> 100 µM	> 100 µM
O=c1oc2cc(N=Cc3ccc4c(c3)OCO4)ccc2c2ccccc12	–	> 100 µM	–	> 100 µM	–	> 100 µM	–	> 100 µM	–	> 100 µM	–	> 100 µM	–	> 100 µM	–	> 100 µM	–	–	–	50.6 µM
C[C@]12CCC(=O)C(O)=C1CC[C@@H]1C2CC[C@]2(C)Nc3c(cnn3-c3ccccc3)CC12 (some centres not stated)	–	> 100 µM	–	> 100 µM	–	> 100 µM	–	> 100 µM	–	–	–	> 100 µM	–	–	–	–	–	97.5	–	> 100 µM
OC(CNCC1CCCO1)Cn1c2ccc(Cl)cc2c2cc(Cl)ccc21 (configuration not stated)	1.65 µM	3.05 µM	1.67 µM	3.15 µM	1.77 µM	3.26 µM	1.68 µM	3.16 µM	1.75 µM	3.5 µM	1.7 µM	3.38 µM	1.83 µM	3.37 µM	1.93 µM	3.82 µM	2.69	6.2	–	–
CCN1Cc2c(ccc(F)c2C#N)O[C@@H](C)CNC(=O)c2c(N)nn3ccc1nc23	5.34 µM	32.4 µM	1.82 µM	11.5 µM	3.46 µM	15.2 µM	0.676 µM	6.86 µM	1.32 µM	4.21 µM	3.87 µM	80.2 µM	2.09 µM	15.7 µM	6.03 µM	56.3 µM	–	–	5.03 µM	31.4 µM
O=C(O)CNS(=O)(=O)c1ccc(NC(=O)CI)cc1	–	35 µM	–	72.4 µM	–	63 µM	–	> 100 µM	–	–	–	39.6 µM	–	–	–	–	–	38.6	–	81.6 µM
COC(=O)C1CCCN1C(=O)[C@@H]1CCCN1C(=O)[C@H](Cc1c[nH]c2ccccc12)NC(=S)Nc1cc(C(F)(F)F)cc(C(F)(F)F)c1 (some centres not stated)	1.67 µM	3.81 µM	3.54 µM	10.7 µM	2.63 µM	7.61 µM	–	–	1.62 µM	3.4 µM	3.68 µM	12.6 µM	2.52 µM	6.47 µM	3.85 µM	22.1 µM	2.93	8	1.91 µM	7.83 µM
COC(=O)[C@]12CC=C3O[C@@H]4OC5(CCCCC5)O[C@@H]4C3[C@@H]1C(=O)CCC2=O (some centres not stated)	–	> 100 µM	–	> 100 µM	–	> 100 µM	–	> 100 µM	–	–	–	> 100 µM	–	–	–	–	–	> 100	–	> 100 µM
COc1ccc(/C(=N\O)c2cc(C)c(OC)c(C)c2)cc1O	< 0.01 µM	> 100 µM	20.9 µM	> 100 µM	< 0.01 µM	0.068 µM	< 0.01 µM	> 100 µM	0.0438 µM	> 100 µM	< 0.01 µM	> 100 µM	0.0349 µM	> 100 µM	< 0.01 µM	> 100 µM	–	–	0.0613 µM	> 100 µM
COc1ccccc1C1c2cc3c(cc2OC(O)(CO)C1C(=O)O)OCO3 (configuration not stated) (tested in a mixture with another compound)	–	> 100 µM	–	> 100 µM	–	> 100 µM	–	> 100 µM	–	–	–	> 100 µM	–	–	–	–	–	> 100	–	> 100 µM
